“Also recorded” adds a separate entry of the source. Read-outs that look alike come from different tables or passages of the source.

Consider two compounds from paper PMC4138991, “Building a Better Dynasore: The Dyngo Compounds Potently Inhibit Dynamin and Endocytosis” (Traffic (Copenhagen, Denmark), 2013).

Experiment [1] deals with dynamin I SAI activity (rings). Nature of the experiment: Self-assembly-induced (SAI) dynamin GTPase activity. Format: biochemical, sheep. The settings on record: presence of Tween, 500 nM dynamin. On the procedure: The Malachite Green colorimetric GTPase assay was as described 10. Dynamin I activity was measured in its SAI activity state or was stimulated by three different methods. As each stimulus activates dynamin to different extents, each assay required different dynamin concentrations. First, maximal dynamin activity was stimulated by sonicated PS liposomes 10. Purified dynamin I (10–20 nM, diluted in: 6 mM Tris–HCl, 20 mM NaCl and 0.01% Tween 80, pH 7.4) was incubated in 96‐well plates in GTPase buffer (5 mM Tris–HCl, 10 mM NaCl, 2 mM Mg^2+, 0.05% Tween 80, pH 7.4, 1 µg/mL leupeptin and 0.1 mM PMSF) and GTP 0.3 mM in the presence of test compound for 30 min at 37°C in a final assay volume of 150 μL. Reactions were terminated with 10 μL of 0.5 M ethylenediaminetetraacetic acid (EDTA) pH 7.4 and Malachite Green solution (40 μL: 2% w/v ammonium molybdate tetrahydrate, 0.15% w/v malachite green and 4 M HCl) was added for 5 min. Second, dynamin (20 nM) was stimulated by 10 µg/mL of taxol‐stabilized preformed bovine brain microtubules (Cytoskeleton, Inc) using the same protocol. […] Finally, dynamin (500 nM) SAI activity was measured using high concentrations of dynamin, which promote its cooperative self‐assembly into rings (but not helices) 26. […] After the Vmax and Km values were determined, the data were transformed using the Lineweaver–Burke equation, 1/v = 1/Vmax + (Km/Vmax)(1/[S]).

The target in experiment [2] is T1, recombinant rat dynamin II (Rattus norvegicus, UniProt P39052).
T1 sequence (P39052 1-870): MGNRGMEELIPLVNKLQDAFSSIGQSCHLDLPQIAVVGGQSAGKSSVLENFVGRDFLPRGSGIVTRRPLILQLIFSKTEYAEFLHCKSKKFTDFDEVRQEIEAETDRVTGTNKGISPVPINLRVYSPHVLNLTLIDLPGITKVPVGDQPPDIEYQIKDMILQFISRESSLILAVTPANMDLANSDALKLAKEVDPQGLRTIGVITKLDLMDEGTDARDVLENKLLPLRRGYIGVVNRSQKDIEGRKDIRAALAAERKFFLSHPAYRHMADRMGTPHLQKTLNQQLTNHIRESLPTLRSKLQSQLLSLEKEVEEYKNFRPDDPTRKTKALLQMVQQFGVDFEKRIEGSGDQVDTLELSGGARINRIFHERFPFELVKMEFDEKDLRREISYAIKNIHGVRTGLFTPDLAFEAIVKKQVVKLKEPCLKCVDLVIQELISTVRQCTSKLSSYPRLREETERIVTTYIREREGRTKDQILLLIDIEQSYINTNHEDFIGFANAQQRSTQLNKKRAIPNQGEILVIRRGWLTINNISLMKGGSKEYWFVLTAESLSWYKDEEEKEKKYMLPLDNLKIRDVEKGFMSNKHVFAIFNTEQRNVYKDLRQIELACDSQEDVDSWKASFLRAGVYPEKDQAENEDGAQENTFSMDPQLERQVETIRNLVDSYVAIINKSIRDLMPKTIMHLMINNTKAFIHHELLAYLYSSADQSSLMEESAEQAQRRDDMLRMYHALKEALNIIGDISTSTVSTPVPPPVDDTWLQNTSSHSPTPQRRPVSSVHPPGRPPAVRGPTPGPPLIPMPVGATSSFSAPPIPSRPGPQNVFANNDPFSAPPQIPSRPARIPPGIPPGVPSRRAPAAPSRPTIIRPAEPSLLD
Kind of experiment: Dynamin II GTPase assay (PS-stimulated). The class given is biochemical. The text has this:
Recombinant dynamin I was used only for the data in Table 2. The dynamin antibodies were from: Dynamin I—in‐house YF2 antibodies, raised in rabbits against two different synthetic peptides: dynamin I 629‐647 ([…]) and dynamin I 765–778 ([…]), used at 1/2000 dilution, as previously described 53; Dynamin II—Santa Cruz (C‐18, sc‐6400, used at 1/1000) and Dynamin III—Santa Cruz (P‐13, sc‐69472, used at 1/500 dilution).
Assay conditions were based on the dynamin I assay but contained modifications. Recombinant dynamin II was used at 50 nM, stimulated by 10 µg/mL PS. The GTPase reaction was allowed to occur for 90 min at 37°C before termination.

Another experiment has as its system Calyx of Held. Nature of the experiment: Membrane capacitance measurements at the Calyx of Held in brain slices. The class given is cell-based, mice. The settings on record: for SVE (decay of membrane capacitance): direct application by puffing pipette: 300 μM 4a, 800 μM dynasore.

In the case of `O=C(N/N=C/c1ccc(O)c(O)c1)c1cc2ccccc2cc1O` [Dynasore, (E)-N'-(3,4-Dihydroxybenzylidene)-3-hydroxy-2-naphthohydrazide], the “inhibition of SAI (self-assembly) activity” value in experiment [1] is recorded as “did not block”. The IC50 in experiment [2] (detergent removed from the assay, n = 2, read-out: IC50 full-length helical dynamin II) was 18.1 ± 0.2 µM. For the same compound, the “effect on dynamin II” value in experiment [2] (standard assay with Tween-80, up to 1.5 mM) was “no effect”. Moreover, in the experiment with Calyx of Held, the “SVE (decay of membrane capacitance)” value was “inhibits SVE”.

As for `O=C(N/N=C/c1cc(O)c(O)cc1O)c1cc2ccccc2cc1O` [4a, (E)-3-Hydroxy-N'-(2,4,5-trihydroxybenzylidene) -2-naphthohydrazide], the “inhibition of SAI (self-assembly) activity” value in experiment [1] was “not at all inhibited; also recorded: without effect”. Moreover, the IC50 was found to be 2.3 ± 0.2 µM in experiment [2] (Absence of Tween, DynII 50 nM, no unit in table, read-out: IC50 DynII (rec)) and 92.3 ± 10.9 µM in experiment [2] (Presence of Tween, DynII 50 nM, no unit in table, read-out: IC50 DynII (rec)). The “exocytosis (capacitance jump)” value in the experiment with Calyx of Held (300 μM 4a in puffing pipette) is “did not acutely affect exocytosis”. The “SVE (decay of membrane capacitance)” value with Calyx of Held is “complete blockade of SVE”.

One may read the IC50 as the midpoint of a concentration-inhibition curve.
